Reference: patent US20170349860A1, “ENZYME STABILIZERS” (Henkel AG & Co. KGaA, priority 2014, published 2017)

Test system: protease
Experiment: Storage stability of protease in detergent formulation: residual proteolytic activity by AAPF-pNA assay
Format: biochemical
Settings: 1% protease, 1% (w/w) candidate compound in detergent formulation; stored 8 weeks at 30° C.; AAPF-pNA substrate, 25° C., pH 8.6, 410 nm
Description: The storage stability of protease-containing detergents and cleaning agents was tested for use as enzyme stabilizers in the presence of candidate compounds. For this purpose, the candidate compounds were formulated in the presence of up to 1% (w/w) 1,2-propanediol in a detergent or cleaning agent formulation (see Table 2). The protease (1% PUR) was then added to the formulation, and the formulation stored for 8 weeks at 30° C.
In parallel batches, the proteolytic activity of 1% protease was determined in 4% PG (1,2-propanediol), 85% matrix (see Table 1), then, each following incubation with 1% of the candidate compound (specified in w/w; QS 100% with water) determined in half of the batches in the formulation as indicated in Table 1 by the release of the chromophore para-nitroaniline from the succinyl-alanine-alanine-proline-phenylalanine para-nitroanilide substrate (AAPF-pNA; Bachem L-1400). The release of the pNA caused an increase in the absorbance at 410 nm, the progress over time of which is a measure of enzymatic activity. […]
For evaluation, the initial values for the proteolytic activity of the agent in question were compared to the values determined after storage. […] The stabilizing effect of each tested compound is thus measured as a relative percentage increase in the residual protease activity.

## O=C(O)CCCCCNc1nc(NCCCCCC(=O)O)nc(NCCCCCC(=O)O)n1 [2,4,6-Tri-(6-aminocaproic acid)-1,3,5-triazine]
  Relative residual activity after incubation with KV: 136%
